Data on five molecules can be found in ChEMBL document CHEMBL1145967, “Design, synthesis, and biological activities of classical N-[4-[2-(2-amino-4-ethylpyrrolo[2,3-d]pyrimidin-5-yl)ethyl]benzoyl]-l-glutamic acid and its 6-methyl derivative as potential dual inhibitors of thymidylate synthase and dihydrofolate reductase and as potential antitumor agents” (J Med Chem, 2003).

The test system of series [1] is ACHN. Put plainly: Cytotoxicity evaluation against ACHN renal cancer cells. In kind it is functional. As to conditions: Homo sapiens.
The test system of series [2] is A549. Put plainly: Cytotoxicity evaluation against A549/ATCC non-small-cell lung cancer cells. The note with it: Homo sapiens. In kind it is functional.
Series [3] has as its system HCT-15. Description: Cytotoxicity evaluation against HCT-15 colon cancer cells. It is filed as functional. The note with it: Homo sapiens.
Series [4] deals with HL-60. Description: Cytotoxicity evaluation against HL-60 Leukemia cells. As to conditions: Homo sapiens. It is filed as functional.
For series [5], the system named is HT-29. Put plainly: Cytotoxicity evaluation against HT-29 colon cancer cells. In kind it is functional. The note with it: Homo sapiens.
Series [6] has as its system K562. Put plainly: Cytotoxicity evaluation against K-562 Leukemia cells. It is filed as functional. The note with it: Homo sapiens.
Series [7] has as its system MDA-N. Description: Cytotoxicity evaluation against […] breast cancer cells. The note with it: Homo sapiens. In kind it is functional.
For series [8], the system named is LOX IMVI. Put plainly: Cytotoxicity evaluation against LOX IMVI melanoma cells. It is filed as functional. The note with it: Homo sapiens.
The test system of series [9] is MDA-MB-435. Put plainly: Cytotoxicity evaluation against MDA-MB-435 breast cancer cells. In kind it is functional. As to conditions: Homo sapiens.
The subject of series [10] is MCF7. Description: Cytotoxicity evaluation against MCF-7 breast cancer cells. In kind it is functional. The note with it: Homo sapiens.
The test system of series [11] is NCI-H226. Description: Cytotoxicity evaluation against NCI-H226 non-small-cell lung cancer cells. It is filed as functional. As to conditions: Homo sapiens.
For series [12], the system named is NCI-H460. Description: Cytotoxicity evaluation against NCI-H460 non-small-cell lung cancer cells. It is filed as functional. As to conditions: Homo sapiens.
The test system of series [13] is OVCAR-4. Put plainly: Cytotoxicity evaluation against OVCAR-4 cells. The note with it: Homo sapiens. It is filed as functional.
The test system of series [14] is R2-CCRF-CEM. Description: Growth inhibition of MTX-resistant subline R2-CCRF-CEM Human Leukemia Cell was determined. It is filed as functional, cell-based.
Series [15] deals with R30dm-CCRF-CEM. Put plainly: Growth inhibition of MTX-resistant subline R30dm-CCRF-CEM Human Leukemia Cell was determined. It is filed as functional, cell-based.
Series [16] deals with R1-CCRF-CEM. Description: Growth inhibition of MTX-resistant subline R1-CCRF-CEM Human Leukemia Cell was determined. It is filed as functional, cell-based.
Series [17] relates to SW-620. Put plainly: Cytotoxicity evaluation against SW-620 colon cancer cells. It is filed as functional. The note with it: Homo sapiens.
Series [18] has as its system SN12C. Put plainly: Cytotoxicity evaluation against SN12C renal cancer cells. In kind it is functional. The note with it: Homo sapiens.
Series [19] has as its system SF-539. Put plainly: Cytotoxicity evaluation against SF-539 CNS cancer cells. In kind it is functional. As to conditions: Homo sapiens.
In series [20] the target is Thymidylate synthase (Homo sapiens, UniProt P04818). Description: Compound was evaluated as inhibitor of human thymidylate synthase.
Series [21] has as its target Thymidylate synthase (Escherichia coli, UniProt C3SWJ7). Description: Compound was evaluated as inhibitor of Escherichia coli thymidylate synthase.
The subject of series [22] is UACC-62. Description: Cytotoxicity evaluation against UACC-62 melanoma cells. The note with it: Homo sapiens. In kind it is functional.
For series [23], the system named is UACC-257. Put plainly: Cytotoxicity evaluation against UACC-257 melanoma cells. In kind it is functional. The note with it: Homo sapiens.
Series [24] concerns CCRF-CEM. Put plainly: Growth inhibition of CCRF-CEM Human Leukemia Cell was determined. In kind it is functional, cell-based.
In series [25] the test system is MOLT-4. Description: Cytotoxicity evaluation against MOLT-4 Leukemia cells. In kind it is functional. As to conditions: Homo sapiens.
In series [26] the target is Dihydrofolate reductase (Homo sapiens, UniProt P00374).
The target in series [27] is Dihydrofolate reductase (Homo sapiens) (UniProt P00374). Description: Compound was evaluated as inhibitor of human Dihydrofolate reductase. The note with it: concentration not given here.
Series [28] has as its target Thymidylate synthase (Lactobacillus casei, UniProt P00469). Description: Compound was evaluated as inhibitor of Lactobacillus casei thymidylate synthase. Also on record: species or system Lacticaseibacillus casei.
Substrate in series [29]: CCc1[nH]c(N)nc2nc(C)c(CCc3ccc(C(=O)N[C@@H](CCC(=O)O)C(=O)O)cc3)c1-2
Description: (§1) Activity of compound calculated as Km was tested as substrate for human Folyl-polyglutamate synthase.

Substrate in series [30]: CCc1[nH]c(N)nc2ncc(CCc3ccc(C(=O)N[C@@H](CCC(=O)O)C(=O)O)cc3)c1-2
The description is as §1.

Substrate in series [31]: CCc1[nH]c(N)nc2nc(C)c(CCc3ccc(C(=O)N[C@@H](CCC(=O)O)C(=O)O)cc3)c1-2
Put plainly: (§2) Activity of compound calculated as maximum activity of substrate for human Folyl-polyglutamate synthase relative to the maximum activity for aminopterin.

Substrate in series [32]: CCc1[nH]c(N)nc2ncc(CCc3ccc(C(=O)N[C@@H](CCC(=O)O)C(=O)O)cc3)c1-2
The description is as §2.

Substrate in series [33]: Cc1nc(N)nc2[nH]cc(CCc3ccc(C(=O)N[C@@H](CCC(=O)O)C(=O)O)cc3)c12
Described as §2.

Substrate in series [34]: Nc1nc(N)c2nc(CNc3ccc(C(=O)N[C@@H](CCC(=O)O)C(=O)O)cc3)cnc2n1
Described as §2.

Sequence of Thymidylate synthase (Homo sapiens, UniProt P04818) (P04818 whole entry): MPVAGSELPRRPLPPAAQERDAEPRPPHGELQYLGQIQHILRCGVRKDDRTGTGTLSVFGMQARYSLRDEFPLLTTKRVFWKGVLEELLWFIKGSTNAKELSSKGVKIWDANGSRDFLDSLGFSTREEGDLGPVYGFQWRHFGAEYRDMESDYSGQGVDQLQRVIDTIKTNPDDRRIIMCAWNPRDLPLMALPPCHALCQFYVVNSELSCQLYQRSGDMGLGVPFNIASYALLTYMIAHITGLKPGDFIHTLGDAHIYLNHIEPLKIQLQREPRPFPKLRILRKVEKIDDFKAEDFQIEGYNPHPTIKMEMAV
Sequence of Thymidylate synthase (Lactobacillus casei, UniProt P00469) (P00469 whole entry): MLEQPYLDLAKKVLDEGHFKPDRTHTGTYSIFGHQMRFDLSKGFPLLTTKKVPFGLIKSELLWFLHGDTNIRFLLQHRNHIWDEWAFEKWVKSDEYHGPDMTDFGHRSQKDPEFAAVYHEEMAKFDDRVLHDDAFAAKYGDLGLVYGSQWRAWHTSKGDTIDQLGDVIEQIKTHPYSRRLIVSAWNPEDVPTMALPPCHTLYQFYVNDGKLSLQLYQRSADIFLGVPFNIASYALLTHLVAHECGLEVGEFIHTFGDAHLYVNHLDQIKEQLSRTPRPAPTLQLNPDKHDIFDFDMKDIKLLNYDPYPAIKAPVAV
Sequence of Thymidylate synthase (Escherichia coli, UniProt C3SWJ7) (C3SWJ7 whole entry): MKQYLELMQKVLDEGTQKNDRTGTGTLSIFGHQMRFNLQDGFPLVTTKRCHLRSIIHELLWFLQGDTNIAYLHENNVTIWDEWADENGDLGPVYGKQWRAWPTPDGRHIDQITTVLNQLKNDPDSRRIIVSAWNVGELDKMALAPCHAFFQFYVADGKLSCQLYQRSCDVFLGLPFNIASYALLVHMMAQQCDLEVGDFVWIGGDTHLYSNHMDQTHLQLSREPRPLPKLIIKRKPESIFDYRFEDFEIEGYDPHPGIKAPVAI
Sequence of Dihydrofolate reductase (P00374 whole entry): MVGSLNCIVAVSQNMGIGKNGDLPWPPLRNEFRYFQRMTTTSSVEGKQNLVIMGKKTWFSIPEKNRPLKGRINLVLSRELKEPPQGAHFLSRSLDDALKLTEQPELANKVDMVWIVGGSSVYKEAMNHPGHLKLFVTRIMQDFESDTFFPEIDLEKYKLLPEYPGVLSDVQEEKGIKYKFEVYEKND
Sequence of Dihydrofolate reductase (Homo sapiens) (P00374 whole entry): as above

`CCc1nc(N)nc2[nH]cc(CCc3ccc(C(=O)N[C@@H](CCC(=O)O)C(=O)O)cc3)c12`: the GI50 is 169 nM in series [1]; less than 10 nM in series [2]; less than 10 nM in series [3]; less than 10 nM in [4]; less than 10 nM in [5]; less than 10 nM in series [6]. For the same molecule, the GI50 in [7], in series [8], in [9], in series [10], in [11] and in [12] was less than 10 nM in each case. The GI50 in [13], in series [17], in [18], in [19], in series [22] and in series [23] was less than 10 nM each time. This molecule also gave a GI50 in series [25] of more than 100000 nM. In addition, the EC50 in series [14] was 750 nM; in [15] it was 18.5 nM; in series [16], 695 nM; in [24], 15 nM. In addition, the IC50 in series [20] and in [21] was 80000 nM throughout.

Consider `Cc1nc(N)nc2[nH]cc(CCc3ccc(C(=O)N[C@@H](CCC(=O)O)C(=O)O)cc3)c12`, for which the GI50 is more than 100000 nM in series [3]; less than 10 nM in series [4]; more than 100000 nM in series [5]; 14700 nM in series [6]; more than 100000 nM in [7]; 11500 nM in series [8]. The GI50 in series [9], in series [13], in series [17], in series [18], in series [22] and in series [23] was more than 100000 nM throughout. Also, the EC50 in series [14] came out at 575 nM; in [15] it was 18.5 nM; in [16], 158 nM. Inhibition in series [26] was half-maximal at 1200 nM (IC50).

On to `CN(Cc1cnc2nc(N)nc(N)c2n1)c1ccc(C(=O)N[C@@H](CCC(=O)O)C(=O)O)cc1` [METHOTREXATE], for which the EC50 in [14] was determined as 2630 nM; in series [15] it was 12.8 nM; in [16], 985 nM.

As for `CCc1[nH]c(N)nc2nc(C)c(CCc3ccc(C(=O)N[C@@H](CCC(=O)O)C(=O)O)cc3)c1-2`, the GI50 was more than 100000 nM in series [1]; more than 100000 nM in series [2]; more than 100000 nM in [3]; less than 10 nM in series [4]; more than 100000 nM in series [5]; 143 nM in series [6]. The GI50 in series [7] is more than 100000 nM; in series [8] it was 98600 nM; in series [9] it was more than 100000 nM; in series [10], more than 100000 nM; in series [11], more than 100000 nM; in [12], more than 100000 nM. The GI50 in series [13], in series [17], in [18], in series [19], in series [22] and in series [23] was more than 100000 nM in each case. The GI50 in series [25] is 100 nM. This molecule also returned an inhibition in series [27] of 14%. Also, the EC50 was more than 10000 nM in series [14], more than 20000 nM in series [15], more than 20000 nM in [16] and more than 10000 nM in [24]. Moreover, the 50% inhibitory concentration (IC50) in series [20] is 9000 nM; in [28], more than 100000 nM.

B1: Folylpolyglutamate synthase, mitochondrial (Homo sapiens), Q05932 (protein)
chain: MSRARSHLRAALFLAAASARGITTQVAARRGLSAWPVPQEPSMEYQDAVRMLNTLQTNAGYLEQVKRQRGDPQTQLEAMELYLARSGLQVEDLDRLNIIHVTGTKGKGSTCAFTECILRSYGLKTGFFSSPHLVQVRERIRINGQPISPELFTKYFWRLYHRLEETKDGSCVSMPPYFRFLTLMAFHVFLQEKVDLAVVEVGIGGAYDCTNIIRKPVVCGVSSLGIDHTSLLGDTVEKIAWQKGGIFKQGVPAFTVLQPEGPLAVLRDRAQQISCPLYLCPMLEALEEGGPPLTLGLEGEHQRSNAALALQLAHCWLQRQDRHGAGEPKASRPGLLWQLPLAPVFQPTSHMRLGLRNTEWPGRTQVLRRGPLTWYLDGAHTASSAQACVRWFRQALQGRERPSGGPEVRVLLFNATGDRDPAALLKLLQPCQFDYAVFCPNLTEVSSTGNADQQNFTVTLDQVLLRCLEHQQHWNHLDEEQASPDLWSAPSPEPGGSASLLLAPHPPHTCSASSLVFSCISHALQWISQGRDPIFQPPSPPKGLLTHPVAHSGASILREAAAIHVLVTGSLHLVGGVLKLLEPALSQ
With B1, the values for the Michaelis constant (Km) in series [29] and in series [30] were 96 µM and less than 2 µM, respectively. Further, the relative Vmax in series [31] is 0.1; in [32], 0.23; in series [33], 0.17. For the same molecule, in [34], the Vmax is 1 µM.
